# In patent publication EP0751957B1, “PEPTIDE FRAGMENTS OF MICROBIAL STRESS PROTEINS AND PHARMACEUTICAL COMPOSITION MADE THEREOF FOR THE TREATMENT AND PREVENTION OF INFLAMMATORY DISEASES” (priority 1994, dated 2004):
# Key:
# [1] = test system: Peptide-specific T cell lines; assay: T cell proliferation assay, peptide-specific T cell lines from peptide-immunised rats; type: cell-based, Lewis rats; settings: for CPM T Cell Line: in vitro peptide 10 µg/ml
# Experimental: (§1) T cell proliferation assays: PLNC were cultured in triplicate in 200 µl flat bottom microtitre wells (Costar) at 2 x 10^5 cells per well with or without antigen. In initial experiments PLNC were tested for responsiveness to individual peptides at concentrations of 5 and 20 µg/ml, and Mt, hsp65 and PPD over a range of concentrations. Concanavalin A (2 µg/ml) was used as a positive control for T cell proliferation. Cultures were incubated for 96 h at 37°C in a humidified atmosphere of 5% CO2. Cultures were pulsed for the final 16 h with [^3H] TdR (Amersham, U.K., 1 uCi/well) and TdR uptake measured using a liquid scintillation β counter. Assays using T cell lines were performed as above using 2 x 10^4 line cells per well with irradiated (30 Gy) syngeneic accessory cells (either 3 x 10^5 splenocytes/well or 10^6 thymocytes/well). Results are expressed as mean counts per minute (cpm) of triplicate cultures. In experiments where responses to Ag were low, responses were considered significant if the stimulation index (S.I. = […]) was greater than two and Student's t tests gave p < 0.01.
# T cell lines: T cell lines with specificity for mycobacterial hsp65 or peptides were generated by bulk stimulation of either hsp65-PLNC or Mt-PLNC. PLNC were cultured at 5 x 10^6/ml in culture medium supplemented with 2% normal rat serum (NRS) in the presence of 10 µg/ml Ag. After three days viable cells were harvested using a ficoll-isopaque gradient and cultured for a further four days in culture medium + 5% FCS and 5% TCGF (Con A-activated rat spleen supernatant). Seven days after initial stimulation lines were restimulated with irradiated spleen accessory cells and 10 µg/ml Ag in culture medium + NRS. Lines were maintained ir. this seven day restimulation cycle. Short term epitope-specific T cell lines were also generated from rats immunised with synthetic peptides. Peptide-PLNC were cultured as above in the presence of 10 µg/ml peptide.
# Bulk stimulation generated T cell lines to eight of the nine peptides tested. These eight lines were tested for specificity after four in vitro restimulations (Table II). All responded to the immunising peptide and, to some extent, to hsp65.
# (§2) T cell responses by immunisation with hsp65 peptides. Rats were immunised with synthetic peptides containing individual hsp65 epitopes (100 µg peptide/DDA per rat). Ten days later PLNC were isolated and tested for responses to overlapping peptides (20 µg/ml). Peptide-specific T cell lines were generated by bulk in vitro stimulation of PLNC with immunising peptide. Lines were tested for responses to overlapping peptides (10 µg/ml). […] Results are expressed as mean cpm of triplicate cultures. All SEM were less than 20%.
# [2] = test system: primed lymph node cells (PLNC); assay: T cell proliferation assay, PLNC from peptide-immunised rats; type: cell-based, Lewis rats; settings: in vitro peptide 20 µg/ml
# Experimental: Immunisations with synthetic peptides and primed lymph node populations: Rats were immunised with 50 µg of synthetic peptide in PBS/DDA in each hind footpad (i.e. 50 µg/footpad, 100 µg/rat). Ten days later, draining popliteal lymph nodes were removed, disaggregated, washed three times and used as a source of primed lymph node cells (PLNC). In some experiments, PLNC were derived as pooled inguinal and popliteal lymph nodes from AA rats 35-42 days post Mt immunisation.
# as §1
# To determine whether immunisation of rats with synthetic peptides was effective at priming for T cell reactivity to hsp65 epitopes, in vitro proliferative responses following immunisation with 100 µg of peptide each containing individual T cell epitopes were examined. PLNC isolated ten days after immunisation were tested for response to the immunising peptide, overlapping peptides and to hsp65 (Table II). PLNC responses were observed after immunisation with seven of the nine peptides. Responses were not seen after immunisation with peptides 386-400 and 511-525.
# as §2
# [3] = target: RT1.B^1 MHC class II molecule (rat (Lewis)); assay: cell-based or functional assay
# [4] = T cell line from 86-100-immunised PLNC
# [5] = PLNC 10 days after immunisation with peptide 86-100 (100 µg/DDA), mean of triplicates
# [6] = T cell line from 176-190-immunised PLNC
# [7] = PLNC 10 days after immunisation with peptide 176-190 (100 µg/DDA)
# [8] = T cell line from 211-225-immunised PLNC
# [9] = PLNC 10 days after immunisation with peptide 211-225 (100 µg/DDA)
# [10] = T cell line from 226-240-immunised PLNC
# [11] = PLNC 10 days after immunisation with peptide 226-240 (100 µg/DDA)
# [12] = T cell line from 256-270-immunised PLNC
# [13] = PLNC 10 days after immunisation with peptide 256-270 (100 µg/DDA)
# [14] = T cell line from 396-410-immunised PLNC
# [15] = PLNC 10 days after immunisation with peptide 396-410 (100 µg/DDA)
# [16] = T cell line from 446-460-immunised PLNC
# [17] = PLNC 10 days after immunisation with peptide 446-460 (100 µg/DDA)
# [18] = T cell line from 511-525-immunised PLNC
# [19] = PLNC 10 days after immunisation with peptide 511-525 (100 µg/DDA)
substance,measurement,setting,value
"81-95: synthetic 15mer, residues 81-95 of mycobacterial hsp65 (DDVAGDGTTTATVLA; UniProt P9WPE7 81-95, looked up, fragment)",response of T cell line generated following immunisation with the 86-100 peptide,[1],responded
same,CPM T Cell Line,[1]; [4],15785 cpm
same,CPM PLNC,[2]; [5],15296 cpm
"91-105: synthetic 15mer, residues 91-105 of mycobacterial hsp65",response of T cell line generated following immunisation with the 86-100 peptide,[1],responded
same,CPM T Cell Line,[1]; [4],18444 cpm
same,CPM PLNC,[2]; [5],1999 cpm
"171-185: synthetic 15mer, residues 171-185 of mycobacterial hsp65",CPM T Cell Line,[1]; [6],1640 cpm
same,CPM PLNC,[2]; [7],3082 cpm
"181-195: synthetic 15mer, residues 181-195 of mycobacterial hsp65",CPM T Cell Line,[1]; [6],1653 cpm
same,CPM PLNC,[2]; [7],1916 cpm
"206-220: synthetic 15mer, residues 206-220 of mycobacterial hsp65",CPM T Cell Line,[1]; [8],988 cpm
same,CPM PLNC,[2]; [9],645 cpm
"216-230: synthetic 15mer, residues 216-230 of mycobacterial hsp65",CPM T Cell Line,[1]; [8],102341 cpm
same,CPM PLNC,[2]; [9],11117 cpm
"221-235: synthetic 15mer, residues 221-235 of mycobacterial hsp65",CPM T Cell Line,[1]; [10],100306 cpm
same,CPM PLNC,[2]; [11],7381 cpm
"231-245: synthetic 15mer, residues 231-245 of mycobacterial hsp65",CPM T Cell Line,[1]; [10],862 cpm
same,CPM PLNC,[2]; [11],1655 cpm
"251-265: synthetic 15mer, residues 251-265 of mycobacterial hsp65",CPM T Cell Line,[1]; [12],66063 cpm
same,response of the line generated against M.256-270 (line P.m52),[1]; irradiated syngeneic spleen APC,responded
same,CPM PLNC,[2]; [13],6391 cpm
"261-275: synthetic 15mer, residues 261-275 of mycobacterial hsp65",CPM T Cell Line,[1]; [12],646 cpm
same,CPM PLNC,[2]; [13],2553 cpm
"391-405: synthetic 15mer, residues 391-405 of mycobacterial hsp65",CPM T Cell Line,[1]; [14],39335 cpm
same,CPM PLNC,[2]; [15],2280 cpm
"401-415: synthetic 15mer, residues 401-415 of mycobacterial hsp65 (AKAAVEEGIVAGGGV; UniProt P9WPE7 401-415, looked up, fragment)",CPM T Cell Line,[1]; [14],2011 cpm
same,CPM PLNC,[2]; [15],3211 cpm
"441-455: synthetic 15mer, residues 441-455 of mycobacterial hsp65",CPM T Cell Line,[1]; [16],17805 cpm
same,CPM PLNC,[2]; [17],4715 cpm
"451-465: synthetic 15mer, residues 451-465 of mycobacterial hsp65",CPM T Cell Line,[1]; [16],1283 cpm
same,CPM PLNC,[2]; [17],2130 cpm
"506-520: synthetic 15mer, residues 506-520 of mycobacterial hsp65",CPM T Cell Line,[1]; [18],61293 cpm
same,CPM PLNC,[2]; [19],2754 cpm
"516-530: synthetic 15mer, residues 516-530 of mycobacterial hsp65",CPM T Cell Line,[1]; [18],1231 cpm
same,CPM PLNC,[2]; [19],2821 cpm
mycobacterial hsp65 peptide 86-100,reduction of peptide (1 µg/ml) induced T cell line proliferation by anti-RT1.B mAb 0X6 (10 µg/ml),[3],> 70%
mycobacterial hsp65 peptide 176-190,reduction of peptide (1 µg/ml) induced T cell line proliferation by anti-RT1.B mAb 0X6 (10 µg/ml),[3],> 70%
mycobacterial hsp65 peptide 211-225,reduction of peptide (1 µg/ml) induced T cell line proliferation by anti-RT1.B mAb 0X6 (10 µg/ml),[3],> 70%
mycobacterial hsp65 peptide 226-240,reduction of peptide (1 µg/ml) induced T cell line proliferation by anti-RT1.B mAb 0X6 (10 µg/ml),[3],> 70%
mycobacterial hsp65 peptide 256-270,reduction of peptide (1 µg/ml) induced T cell line proliferation by anti-RT1.B mAb 0X6 (10 µg/ml),[3],> 70%
mycobacterial hsp65 peptide 396-410,reduction of peptide (1 µg/ml) induced T cell line proliferation by anti-RT1.B mAb 0X6 (10 µg/ml),[3],> 70%
mycobacterial hsp65 peptide 446-460,reduction of peptide (1 µg/ml) induced T cell line proliferation by anti-RT1.B mAb 0X6 (10 µg/ml),[3],> 70%
mycobacterial hsp65 peptide 511-525,reduction of peptide (1 µg/ml) induced T cell line proliferation by anti-RT1.B mAb 0X6 (10 µg/ml),[3],> 70%
